{"source": "ChEMBL document CHEMBL1201862", "about": "“PubChem BioAssay data set” (2004)", "key": {"[1]": {"assay": "A Cell Based Secondary Assay To Explore Cytotoxicity of Compounds that Sensitize Mycobacterium Tuberculosis to Beta-Lactam Antibiotics.", "assay_type": "functional"}, "[2]": {"assay": "Luminescence Cell-Based Dose Retest to Confirm Inhibitors of Cancer Stem Cells. [Related pubchem assays (depositor defined):AID2717, AID2721]", "assay_type": "functional", "conditions": "Homo sapiens"}, "[3]": {"assay": "reduction of Shn3 3'UTR-driven luciferase in osteoblasts – cell-based, Clone20 osteoblasts, firefly luciferase, cherry-picked, dose response (AID 624132)", "assay_type": "functional"}, "[4]": {"assay": "loss of viability in HepG2 cells – cell-based, CellTiter-Glo, cherry-picked, cytotoxicity control for Shn3 inhibitor project, dose response (AID 624134)", "assay_type": "functional"}, "[5]": {"assay": "non-specific 3'UTR reporter inhibition in Clone20-Shn3RL – cell-based, Renilla luciferase, cherry-picked, counter-screen for Shn3 inhibitor project, dose response (AID 624133)", "assay_type": "functional"}, "[6]": {"assay": "Shn3 3'UTR reporter signal decrease – cell-based, Clone20 osteoblasts, firefly luciferase, cherry-pick, set 2, Schnurri-3 inhibitor project, dose response (AID 720490);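 also: actives lower the luminescence signal as inhibitors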", "assay_type": "functional"}, "[7]": {"assay": "EF1alpha-driven Renilla reporter with control 3'UTR suppression – Clone20-Shn3RL cells, dual-Glo, cherry-pick, set 2, counter-screen for Shn3 3'UTR targeting project, dose response (AID 720724)", "assay_type": "functional, cell-based", "conditions": "Dual-Go Shn3RL"}, "Cytochrome P450 1A2": {"target": "T1, Cytochrome P450 1A2 (Homo sapiens, UniProt P05177)", "T1 sequence (P05177 whole entry)": "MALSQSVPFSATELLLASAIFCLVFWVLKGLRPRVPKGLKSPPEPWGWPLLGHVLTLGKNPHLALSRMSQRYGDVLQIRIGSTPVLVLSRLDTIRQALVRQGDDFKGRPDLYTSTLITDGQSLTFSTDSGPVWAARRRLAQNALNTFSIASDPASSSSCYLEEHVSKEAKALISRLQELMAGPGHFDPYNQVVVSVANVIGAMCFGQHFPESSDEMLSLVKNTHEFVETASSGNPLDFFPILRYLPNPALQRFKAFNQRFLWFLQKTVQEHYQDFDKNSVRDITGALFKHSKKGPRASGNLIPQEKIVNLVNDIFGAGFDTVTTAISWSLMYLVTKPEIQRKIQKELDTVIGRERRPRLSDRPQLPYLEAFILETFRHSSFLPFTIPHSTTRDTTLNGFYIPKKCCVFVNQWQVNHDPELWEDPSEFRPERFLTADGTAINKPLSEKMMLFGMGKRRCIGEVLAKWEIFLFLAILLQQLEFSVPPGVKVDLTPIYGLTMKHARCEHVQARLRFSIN"}, "[8]": {"target": "T2, Voltage-gated inwardly rectifying potassium channel KCNH2 (Homo sapiens, UniProt Q12809)", "T2 sequence (Q12809 whole entry)": "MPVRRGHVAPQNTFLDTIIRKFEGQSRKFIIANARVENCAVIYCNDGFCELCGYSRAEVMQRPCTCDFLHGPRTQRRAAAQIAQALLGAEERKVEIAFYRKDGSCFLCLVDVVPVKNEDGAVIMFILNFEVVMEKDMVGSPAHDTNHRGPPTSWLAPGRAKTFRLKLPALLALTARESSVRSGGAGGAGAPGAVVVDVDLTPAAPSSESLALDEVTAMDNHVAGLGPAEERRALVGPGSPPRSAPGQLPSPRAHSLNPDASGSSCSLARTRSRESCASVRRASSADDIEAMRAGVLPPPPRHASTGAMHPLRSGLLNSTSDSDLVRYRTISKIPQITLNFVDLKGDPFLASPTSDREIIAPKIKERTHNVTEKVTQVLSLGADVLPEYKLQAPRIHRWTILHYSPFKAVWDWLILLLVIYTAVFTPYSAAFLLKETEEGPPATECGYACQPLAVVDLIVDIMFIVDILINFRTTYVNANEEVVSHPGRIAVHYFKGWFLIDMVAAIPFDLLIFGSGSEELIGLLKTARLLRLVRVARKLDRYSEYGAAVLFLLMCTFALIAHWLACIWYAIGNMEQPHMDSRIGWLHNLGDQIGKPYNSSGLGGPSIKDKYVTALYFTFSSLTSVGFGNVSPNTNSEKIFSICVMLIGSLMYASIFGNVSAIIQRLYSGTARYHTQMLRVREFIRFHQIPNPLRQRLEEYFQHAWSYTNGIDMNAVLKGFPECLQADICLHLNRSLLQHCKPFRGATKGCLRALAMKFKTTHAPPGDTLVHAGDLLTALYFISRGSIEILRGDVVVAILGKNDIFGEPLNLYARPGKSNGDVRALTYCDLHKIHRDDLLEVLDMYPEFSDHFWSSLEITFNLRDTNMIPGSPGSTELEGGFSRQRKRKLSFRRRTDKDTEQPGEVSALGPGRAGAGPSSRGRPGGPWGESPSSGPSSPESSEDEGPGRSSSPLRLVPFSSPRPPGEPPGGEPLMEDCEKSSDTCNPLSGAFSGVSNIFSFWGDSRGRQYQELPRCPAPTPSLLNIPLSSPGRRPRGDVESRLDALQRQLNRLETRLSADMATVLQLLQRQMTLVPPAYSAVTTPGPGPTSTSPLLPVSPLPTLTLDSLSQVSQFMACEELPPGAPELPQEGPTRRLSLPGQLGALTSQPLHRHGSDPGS", "conditions": "Potency"}, "Cytochrome P450 3A4": {"target": "Cytochrome P450 3A4 (Homo sapiens, UniProt P08684)", "sequence (P08684 whole entry)": "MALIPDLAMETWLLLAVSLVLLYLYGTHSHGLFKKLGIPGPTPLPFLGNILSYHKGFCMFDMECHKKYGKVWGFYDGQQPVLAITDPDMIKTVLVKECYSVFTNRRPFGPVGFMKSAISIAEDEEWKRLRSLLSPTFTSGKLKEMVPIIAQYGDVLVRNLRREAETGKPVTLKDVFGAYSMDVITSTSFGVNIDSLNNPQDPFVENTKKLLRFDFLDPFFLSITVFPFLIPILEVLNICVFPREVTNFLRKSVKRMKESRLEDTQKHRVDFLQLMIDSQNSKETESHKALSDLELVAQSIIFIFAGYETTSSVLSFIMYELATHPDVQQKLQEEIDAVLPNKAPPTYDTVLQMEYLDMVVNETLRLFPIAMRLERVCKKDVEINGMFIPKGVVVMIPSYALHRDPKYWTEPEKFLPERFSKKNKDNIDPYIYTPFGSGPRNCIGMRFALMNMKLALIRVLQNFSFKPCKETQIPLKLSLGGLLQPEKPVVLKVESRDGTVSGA"}, "Paired box protein Pax-8": {"target": "Paired box protein Pax-8 (Homo sapiens, UniProt Q06710)", "sequence (Q06710 whole entry)": "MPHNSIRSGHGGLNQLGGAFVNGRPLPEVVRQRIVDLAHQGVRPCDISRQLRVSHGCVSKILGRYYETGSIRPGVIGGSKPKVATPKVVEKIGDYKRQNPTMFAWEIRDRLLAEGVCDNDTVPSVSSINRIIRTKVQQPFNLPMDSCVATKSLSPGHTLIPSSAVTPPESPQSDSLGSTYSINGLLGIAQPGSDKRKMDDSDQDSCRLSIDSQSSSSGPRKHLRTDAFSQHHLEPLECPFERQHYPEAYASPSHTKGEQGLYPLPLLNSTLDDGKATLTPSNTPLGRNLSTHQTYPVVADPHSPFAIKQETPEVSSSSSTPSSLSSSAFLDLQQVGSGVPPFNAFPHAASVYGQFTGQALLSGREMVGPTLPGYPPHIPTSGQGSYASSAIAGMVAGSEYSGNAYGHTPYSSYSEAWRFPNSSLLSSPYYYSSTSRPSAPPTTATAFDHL", "assay": "PAX8 transcriptional activity inhibition in RMG-I – RMG-I cells, luciferase, cherry-pick, dose response (AID 687027);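 also: luciferase reporter driven by Pax8 target thyroperoxidase promoter measured by SteadyGlo luminescence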", "assay_type": "functional, cell-based"}, "[9]": {"assay": "reduced cellular PGC1a acetyl-lysine signal – cell-based, cherry-picked samples, dose response (AID 720514);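 also: potency may reflect raised or lowered acetylation signal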", "assay_type": "functional"}, "[10]": {"assay": "general cell-killing toxicity readout – plate reader, dry powder samples, cytotoxicity control for PAX8 inhibitor project, dose response (AID 743021)", "assay_type": "functional, cell-based"}, "Caspase-6": {"target": "Caspase-6 (Homo sapiens, UniProt P55212)", "sequence (P55212 24-179 limits assumed)": "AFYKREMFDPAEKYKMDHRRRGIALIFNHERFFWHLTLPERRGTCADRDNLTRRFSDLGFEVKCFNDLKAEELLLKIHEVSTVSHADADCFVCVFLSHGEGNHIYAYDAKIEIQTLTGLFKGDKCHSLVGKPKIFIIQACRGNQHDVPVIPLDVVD", "sequence (P55212 194-293 limits assumed)": "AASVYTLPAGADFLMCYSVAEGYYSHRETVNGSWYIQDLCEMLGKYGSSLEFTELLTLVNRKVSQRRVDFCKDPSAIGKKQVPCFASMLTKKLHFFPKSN", "assay": "inhibition of CASP6 peptide cleavage – biochemical, VEID-R110 fluorescence, cherry-pick, dose response (AID 720632)"}, "[11]": {"assay": "NIH-3T3 fibroblast cytotoxicity, dose response, cytotoxicity control, cell-based, fluorescence, Alamar Blue, secondary assay (AID 2327);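 also: NIH-3T3 mouse fibroblasts cultured with fluconazole at 8 µg/mL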", "assay_type": "functional"}, "[12]": {"assay": "luciferase reporter signal suppression in cells – H4 neuroglioma cells, luminescence, dose response (AID 1990)", "assay_type": "functional, cell-based"}, "cells [13]": {"assay": "cells", "assay_type": "functional, cell-based"}, "[14]": {"assay": "Luminescence Cell-Based Dose Response HTS to Identify Inhibitors of 5'UTR Stem-Loop Driven Prion Protein mRNA Translation in H4 Neuroglioblastoma Cells. [Related pubchem assays: 1827 (Project Summary), 1813 (Primary HTS)]", "assay_type": "functional"}, "[15]": {"assay": "alpha-synuclein stem-loop luciferase translation blockers – H4 neuroglioma cells, luminescence, confirmation (AID 1988)", "assay_type": "functional, cell-based"}, "[16]": {"assay": "fluconazole-exposed Candida albicans growth modulators – fluorescence, retest, confirmation (AID 2467)", "assay_type": "functional, cell-based"}, "cells [17]": {"assay": "cells", "assay_type": "functional, cell-based", "remark": "listed apart in the source"}, "Nonstructural protein 1": {"target": "Nonstructural protein 1 (Influenza A virus, UniProt Q194T2)", "sequence (Q194T2 whole entry)": "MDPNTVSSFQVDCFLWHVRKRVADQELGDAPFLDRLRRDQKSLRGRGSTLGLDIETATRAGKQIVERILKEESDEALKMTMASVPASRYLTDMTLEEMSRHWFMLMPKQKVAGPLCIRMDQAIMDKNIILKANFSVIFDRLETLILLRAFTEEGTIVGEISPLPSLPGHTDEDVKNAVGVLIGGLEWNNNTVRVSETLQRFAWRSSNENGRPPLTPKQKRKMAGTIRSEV", "assay_type": "functional, Influenza A virus (A/California/07/2009(H1N1))"}, "HEK293": {"tested_on": "HEK293", "assay": "EBV LMP1 TES2 canonical NF-kB signalling blockers – cell-based, HEK293, luciferase, cherry-pick, dose response (AID 588343)", "assay_type": "functional", "conditions": "Homo sapiens"}, "INS1": {"tested_on": "INS1", "assay": "INS-1E survival protection against cytokine death – cell-based, luminescence, retest, dose response (AID 449756);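 also: cell death triggered by IL-1 beta plus TNF-alpha plus IFN-gamma mixture; protective hits raise ATP signal compared with cytokine alone wells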", "assay_type": "functional", "conditions": "Rattus norvegicus"}, "[18]": {"assay": "viability loss in Vero cells – cytotoxicity control for Vif-APOBEC3G degradation inhibitor project, dose response (AID 1117358)", "assay_type": "functional", "conditions": "Vero"}, "[19]": {"target": "T2, Voltage-gated inwardly rectifying potassium channel KCNH2", "assay": "concentration-dependent hERG rescue from blockers – cell-based, thallium flux, dose response (AID 2121)", "assay_type": "ADME"}}, "note": "Activity calls are given as the source filed them."}
{"smiles": "Nc1ncnc2c1c(-c1ccc(Oc3ccccc3)cc1)cn2C1CCCC1", "values": [{"measurement": "CC50", "setting": "[1]", "value": "0.802 µM (active)"}, {"measurement": "AC50", "setting": "[2]", "value": "3.03 µM (active)"}, {"measurement": "AC50", "setting": "[3]", "value": "0.658 µM (active)"}, {"measurement": "AC50", "setting": "[4]", "value": "> 70 µM (inactive)"}, {"measurement": "AC50", "setting": "[5]", "value": "31.7 µM (active)"}, {"measurement": "AC50", "setting": "[6]", "value": "4.83 µM (active)"}, {"measurement": "AC50", "setting": "[7]", "value": "56.8 µM (active)"}, {"measurement": "AC50", "setting": "Cytochrome P450 1A2", "value": "15.8 µM (inconclusive)"}, {"measurement": "AC50", "setting": "[8]", "value": "5.01 µM (inconclusive)"}, {"measurement": "AC50", "setting": "Cytochrome P450 3A4", "value": "inconclusive"}]}
{"smiles": "Oc1nc2ccccc2n1C1CCN(C(CCc2ccccc2)c2nnnn2Cc2ccccc2)CC1", "note": "(configuration not stated)", "values": [{"measurement": "AC50", "setting": "[3]", "value": "1.23 µM (active)"}, {"measurement": "AC50", "setting": "[4]", "value": "13.5 µM (active)"}, {"measurement": "AC50", "setting": "[5]", "value": "60.9 µM (active)"}, {"measurement": "AC50", "setting": "Paired box protein Pax-8", "value": "1.4 µM (active)"}, {"measurement": "AC50", "setting": "[6]", "value": "3.97 µM (active)"}, {"measurement": "AC50", "setting": "[9]", "value": "3.88 µM (active)"}, {"measurement": "AC50", "setting": "[7]", "value": "20.3 µM (active)"}, {"measurement": "AC50", "setting": "[10]", "value": "11.4 µM (active)"}]}
{"smiles": "O=C(Cc1cccs1)N1Cc2ccccc2-n2nncc2C1", "values": [{"measurement": "AC50", "setting": "Caspase-6", "value": "5.36 µM (active)"}]}
{"smiles": "Oc1ccccc1/C=N/Nc1nccnc1Cl", "values": [{"measurement": "EC50", "setting": "[11]", "value": "38.5 µM (active)"}, {"measurement": "EC50", "setting": "[12]", "value": "9.08 µM (active)"}, {"measurement": "EC50", "setting": "cells [13]", "value": "9.82 µM (active)"}, {"measurement": "EC50", "setting": "[14]", "value": "9.43 µM (active)"}, {"measurement": "EC50", "setting": "[15]", "value": "4.65 µM (active)"}, {"measurement": "EC50", "setting": "[16]", "value": "1.06 µM (active)"}, {"measurement": "EC50", "setting": "cells [17]", "value": "7.95 µM (active)"}, {"measurement": "AC50", "setting": "[2]", "value": "6.46 µM (active)"}, {"measurement": "IC50", "setting": "Nonstructural protein 1", "value": "15.9 µM (active)"}, {"measurement": "AC50", "setting": "HEK293", "value": "14.9 µM (active)"}, {"measurement": "AC50", "setting": "INS1", "value": "0.747 µM (active)"}, {"measurement": "CC50", "setting": "[18]", "value": "8.61 µM (active)"}]}
{"smiles": "CC(C)c1ccc(/C=N/n2c(S)nnc2COc2ccccc2)cc1", "values": [{"measurement": "EC50", "setting": "[19]", "value": "7.6 µM (active)"}]}
